Laboratory results: PubChem BioAssay (NCI)
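Assay format: 96-well plates, 48-hour exposure. TGI: total growth inhibition.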

How the values were obtained:
Test in all cases: NCI tumour cell line growth inhibition, 48 h
[1] = system: 786-0 renal
[2] = system: A498 renal
[3] = system: A549 NSCLC
[4] = system: ACHN renal
[5] = system: BT-549 breast
[6] = system: CAKI-1 renal
[7] = system: CCRF-CEM leukemia
[8] = system: COLO 205 colon
[9] = system: DU-145 prostate
[10] = system: EKVX NSCLC
[11] = system: HCT-116 colon
[12] = system: HCT-15 colon
[13] = system: HL-60(TB) leukemia
[14] = system: HOP-92 NSCLC
[15] = system: HS 578T breast
[16] = system: HT29 colon
[17] = system: IGROV1 ovarian
[18] = system: K-562 leukemia
[19] = system: KM12 colon
[20] = system: LOX IMVI melanoma
[21] = system: M14 melanoma
[22] = system: MALME-3M melanoma
[23] = system: MCF7 breast
[24] = system: MDA-MB-231 breast
[25] = system: MDA-MB-435
[26] = system: MDA-N
[27] = system: MOLT-4 leukemia
[28] = system: NCI-H23 lung
[29] = system: NCI-H460 lung
[30] = system: NCI-H522 lung
[31] = system: NCI/ADR-RES ovarian
[32] = system: OVCAR-3 ovarian
[33] = system: OVCAR-4 ovarian
[34] = system: OVCAR-5 ovarian
[35] = system: OVCAR-8 ovarian
[36] = system: PC-3 prostate
[37] = system: RPMI-8226 leukemia
[38] = system: RXF 393 renal
[39] = system: SF-268 CNS
[40] = system: SF-295 CNS
[41] = system: SF-539 CNS
[42] = system: SK-MEL-2 melanoma
[43] = system: SK-MEL-28 melanoma
[44] = system: SK-MEL-5 melanoma
[45] = system: SK-OV-3 ovarian
[46] = system: SN12C renal
[47] = system: SNB-19 CNS
[48] = system: SNB-75 CNS
[49] = system: SR leukemia
[50] = system: SW-620 colon
[51] = system: T-47D breast
[52] = system: TK-10 renal
[53] = system: U251 CNS
[54] = system: UACC-257 melanoma
[55] = system: UACC-62 melanoma
[56] = system: UO-31 renal
[57] = system: HCC-2998 colon
[58] = system: HOP-62 NSCLC
[59] = system: NCI-H226 lung

SMILES: Cc1nccn1S(=O)(=O)c1ccc(Br)cc1Br
- TGI [1]: > 100 µM
- TGI [2]: > 100 µM
- TGI [3]: > 100 µM
- TGI [4]: > 100 µM
- TGI [5]: > 100 µM
- TGI [6]: > 100 µM
- TGI [7]: 98.3 µM
- TGI [8]: 33.4 µM
- TGI [9]: > 100 µM
- TGI [10]: 96.8 µM
- TGI [11]: > 100 µM
- TGI [12]: > 100 µM
- TGI [13]: 51.5 µM
- TGI [14]: 75.3 µM
- TGI [15]: > 100 µM
- TGI [16]: > 100 µM
- TGI [17]: > 100 µM
- TGI [18]: > 100 µM
- TGI [19]: 88.7 µM
- TGI [20]: > 100 µM
- TGI [21]: 39.7 µM
- TGI [22]: > 100 µM
- TGI [23]: > 100 µM
- TGI [24]: 48.5 µM
- TGI [25]: 46 µM
- TGI [26]: 50.1 µM
- TGI [27]: 96.1 µM
- TGI [28]: > 100 µM
- TGI [29]: > 100 µM
- TGI [30]: 86.9 µM
- TGI [31]: > 100 µM
- TGI [32]: 55.4 µM
- TGI [33]: > 100 µM
- TGI [34]: > 100 µM
- TGI [35]: > 100 µM
- TGI [36]: > 100 µM
- TGI [37]: 47.4 µM
- TGI [38]: 76.3 µM
- TGI [39]: > 100 µM
- TGI [40]: 93.1 µM
- TGI [41]: 41.4 µM
- TGI [42]: 55 µM
- TGI [43]: > 100 µM
- TGI [44]: 43.9 µM
- TGI [45]: > 100 µM
- TGI [46]: > 100 µM
- TGI [47]: 90.3 µM
- TGI [48]: 57.9 µM
- TGI [49]: 78.3 µM
- TGI [50]: > 100 µM
- TGI [51]: > 100 µM
- TGI [52]: > 100 µM
- TGI [53]: > 100 µM
- TGI [54]: > 100 µM
- TGI [55]: > 100 µM
- TGI [56]: 68.7 µM

SMILES: COC(=O)/C=C\C(C#N)(C#N)N=Cc1ccc(C)s1
- TGI [1]: 3.2 µM
- TGI [2]: 34.7 µM
- TGI [3]: 33.6 µM
- TGI [4]: 3.66 µM
- TGI [5]: 12.2 µM
- TGI [6]: 4.78 µM
- TGI [7]: 1.64 µM
- TGI [8]: 2.93 µM
- TGI [9]: 9.11 µM
- TGI [10]: 15.3 µM
- TGI [57]: 32.9 µM
- TGI [11]: 2.65 µM
- TGI [12]: 3.66 µM
- TGI [13]: 5.16 µM
- TGI [58]: 28.5 µM
- TGI [14]: 3.24 µM
- TGI [15]: 43.6 µM
- TGI [17]: 4.94 µM
- TGI [18]: > 100 µM
- TGI [19]: 31.8 µM
- TGI [20]: 3.19 µM
- TGI [21]: 3.5 µM
- TGI [22]: 3.09 µM
- TGI [23]: 4.05 µM
- TGI [24]: 18.3 µM
- TGI [25]: 7.65 µM
- TGI [26]: 6.94 µM
- TGI [27]: 5.82 µM
- TGI [59]: 31.4 µM
- TGI [28]: 6.69 µM
- TGI [29]: 40.7 µM
- TGI [30]: 2.01 µM
- TGI [31]: 28.7 µM
- TGI [32]: 9.81 µM
- TGI [33]: 13.1 µM
- TGI [34]: 15.9 µM
- TGI [35]: 9.97 µM
- TGI [36]: 6.72 µM
- TGI [37]: > 32.5 µM
- TGI [38]: 3.42 µM
- TGI [39]: 19.1 µM
- TGI [40]: 31.8 µM
- TGI [41]: 10.1 µM
- TGI [42]: 20.5 µM
- TGI [43]: 9.64 µM
- TGI [44]: 19.7 µM
- TGI [45]: 28.2 µM
- TGI [46]: 5.91 µM
- TGI [47]: 32.8 µM
- TGI [48]: 19.9 µM
- TGI [49]: 8.17 µM
- TGI [50]: 2.14 µM
- TGI [51]: 3.92 µM
- TGI [52]: 3.8 µM
- TGI [53]: 28.8 µM
- TGI [54]: 7.71 µM
- TGI [55]: 31 µM
- TGI [56]: 3.53 µM

SMILES: Cc1cc(NS(=O)(=O)c2ccc(NC(=O)c3cccc4c(NNc5ccc(S(=O)(=O)N=C(N)N)cc5)c5ccccc5nc34)cc2)no1
- TGI [1]: > 100 µM
- TGI [3]: > 100 µM
- TGI [4]: > 100 µM
- TGI [5]: > 100 µM
- TGI [6]: > 100 µM
- TGI [7]: 82.3 µM
- TGI [8]: > 100 µM
- TGI [9]: > 100 µM
- TGI [10]: 93.2 µM
- TGI [57]: > 100 µM
- TGI [11]: > 100 µM
- TGI [12]: > 100 µM
- TGI [13]: 75.6 µM
- TGI [58]: > 100 µM
- TGI [14]: 92.7 µM
- TGI [15]: > 100 µM
- TGI [16]: 92.6 µM
- TGI [17]: > 100 µM
- TGI [18]: > 100 µM
- TGI [19]: > 100 µM
- TGI [20]: > 100 µM
- TGI [21]: > 100 µM
- TGI [22]: > 100 µM
- TGI [23]: > 100 µM
- TGI [24]: > 100 µM
- TGI [25]: > 100 µM
- TGI [26]: > 100 µM
- TGI [27]: 74.9 µM
- TGI [59]: 98.5 µM
- TGI [28]: > 100 µM
- TGI [29]: > 100 µM
- TGI [30]: 96.6 µM
- TGI [31]: > 100 µM
- TGI [32]: > 100 µM
- TGI [33]: > 100 µM
- TGI [34]: > 100 µM
- TGI [35]: > 100 µM
- TGI [36]: > 100 µM
- TGI [37]: > 100 µM
- TGI [38]: > 100 µM
- TGI [39]: > 100 µM
- TGI [40]: > 100 µM
- TGI [41]: > 100 µM
- TGI [42]: 64.2 µM
- TGI [43]: > 100 µM
- TGI [44]: > 100 µM
- TGI [45]: > 100 µM
- TGI [46]: > 100 µM
- TGI [47]: > 100 µM
- TGI [48]: 88.3 µM
- TGI [49]: > 100 µM
- TGI [50]: > 100 µM
- TGI [51]: > 100 µM
- TGI [52]: > 100 µM
- TGI [53]: 64.7 µM
- TGI [54]: > 100 µM
- TGI [55]: > 100 µM
- TGI [56]: > 100 µM
